Data taken from PMC7318222, “A Family of Water‐Immiscible, Dipolar Aprotic, Diamide Solvents from Succinic Acid” (Chemsuschem, 2020).
“Also recorded” adds a separate entry of the source. Marks after values point to notes of the source that are not given here.

Key:
PPARδ = molecular target: T1, PPARδ (Homo sapiens, UniProt Q03181); experiment: PPARδ CALUX reporter gene assay; format: cell-based; set-up: key: –: no effect observed up to the highest test concentration; details: PC10, 24 h exposure
T1 construct: expression construct for the full-length human receptor under investigation; expressed in transfected cells; host or cells: human U2-OS cells (ATCC HTB-96), stably transfected
T1 sequence (Q03181 1-441): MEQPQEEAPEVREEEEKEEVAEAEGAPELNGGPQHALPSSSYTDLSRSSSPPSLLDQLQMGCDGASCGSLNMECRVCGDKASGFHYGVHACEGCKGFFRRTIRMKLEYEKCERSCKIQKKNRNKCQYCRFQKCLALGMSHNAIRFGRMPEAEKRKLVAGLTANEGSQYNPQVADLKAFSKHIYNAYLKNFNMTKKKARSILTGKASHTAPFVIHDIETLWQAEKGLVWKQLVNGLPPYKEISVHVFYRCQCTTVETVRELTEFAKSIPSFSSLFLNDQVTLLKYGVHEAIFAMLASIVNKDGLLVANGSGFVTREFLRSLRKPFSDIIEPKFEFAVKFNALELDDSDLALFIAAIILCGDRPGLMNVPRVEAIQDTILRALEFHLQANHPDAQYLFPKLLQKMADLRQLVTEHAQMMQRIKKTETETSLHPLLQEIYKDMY
Excerpt: nitroaniline ≥98.0% was purchased from Alfa Aeser. Cyrene was supplied by Circa group. N-butylpyrrolidinone was supplied by Eastman chemicals. […]
(§1) Polyarylethersulfone of 55,000 Da were obtained from INGE.BASF, Germany. The CALUX cell lines have been described previously.[1] They are based on human U2-OS cells (ATCC, HTB-96) stably transfected with an expression construct for the full-length human receptor under investigation, and a reporter construct consisting of multimerized responsive elements for the cognate receptor coupled to a minimal promoter element (TATA) and a luciferase gene. Cells were maintained as described previously,[2] using cell culture media and supplements from Fisher Scientific as described in the experimental procedures section. […]
(§2) In vitro reporter gene assays
(§3) The automated CALUX assays were carried out similarly as described earlier,[12] with some adaptations. In brief, the assay was performed in CO2 independent medium (Fisher Scientific, […]
(§4) with 30 µl cell suspension/well. After 24 h, exposure medium was prepared. A dilution series in 0.5log unit increments of each test compound (in DMSO) was added to a 96-wells plate containing assay medium (2% v/v). Of this exposure mixture, 30 µl was added to the assay plates containing the CALUX cells, resulting in a final DMSO concentration of 1%. Additionally, DMSO blanks and a full dose response curve of the relevant reference compound were included on each plate. All samples were tested in triplicate. The preparation of the compound dilution series as well as the exposure of the cells were performed on a Hamilton StarLET liquid handling robot coupled to a Cytomat incubator.
(§5) Directly after exposure, plates were sealed with non-breathing plate seals (Plate sealer, easy seal […]
(§6) After 24 h the exposure medium was removed using an EL406 washer-dispenser (BioTek) and 10 µl/well triton lysisbuffer was added by the EL406.
(§7) Subsequently, the luciferase signal was measured in a luminometer (InfinitePro coupled to a Connect Stacker, both TECAN). In order to be able to detect receptor antagonism, several assays were also performed in antagonistic mode. The assay procedure was as described above, with the only exception that the EC50 concentration of the reference agonist was present during the exposure.
(§8) The luminometer data was analysed as follows; the average of the triplicate wells was determined, […]

AR = molecular target: T2, AR (Homo sapiens, UniProt P10275); experiment: AR-anti CALUX reporter gene assay (antagonistic mode); format: cell-based; set-up: key: –: no effect observed up to the highest test concentration; details: PC20, 24 h exposure
T2 construct: expression construct for the full-length human receptor under investigation; expressed in transfected cells; host or cells: human U2-OS cells (ATCC HTB-96), stably transfected
T2 sequence (P10275 1-920): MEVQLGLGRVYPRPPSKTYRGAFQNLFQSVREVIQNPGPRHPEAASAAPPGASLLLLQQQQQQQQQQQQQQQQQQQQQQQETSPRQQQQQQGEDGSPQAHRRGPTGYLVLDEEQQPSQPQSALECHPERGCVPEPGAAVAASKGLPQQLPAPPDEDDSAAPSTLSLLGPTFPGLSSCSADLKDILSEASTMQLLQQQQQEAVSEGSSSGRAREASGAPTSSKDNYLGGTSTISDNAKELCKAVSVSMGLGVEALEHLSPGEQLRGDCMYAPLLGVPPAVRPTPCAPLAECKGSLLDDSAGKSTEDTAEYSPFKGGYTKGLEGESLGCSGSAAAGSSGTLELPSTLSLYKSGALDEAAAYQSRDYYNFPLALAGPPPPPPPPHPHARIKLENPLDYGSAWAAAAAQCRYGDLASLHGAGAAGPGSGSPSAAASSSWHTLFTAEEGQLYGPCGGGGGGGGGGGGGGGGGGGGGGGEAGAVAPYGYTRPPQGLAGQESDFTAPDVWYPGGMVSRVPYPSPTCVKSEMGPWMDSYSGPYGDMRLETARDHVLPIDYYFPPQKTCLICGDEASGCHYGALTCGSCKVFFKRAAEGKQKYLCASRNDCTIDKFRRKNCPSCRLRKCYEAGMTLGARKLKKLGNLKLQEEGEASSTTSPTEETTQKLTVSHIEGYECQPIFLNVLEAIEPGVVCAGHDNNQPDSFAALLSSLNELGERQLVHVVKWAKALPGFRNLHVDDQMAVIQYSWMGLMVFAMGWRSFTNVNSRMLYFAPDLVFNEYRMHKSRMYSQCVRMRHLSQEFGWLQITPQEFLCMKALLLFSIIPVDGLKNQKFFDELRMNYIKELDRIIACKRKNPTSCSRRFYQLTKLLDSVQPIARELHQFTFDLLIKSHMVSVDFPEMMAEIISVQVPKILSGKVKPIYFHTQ
Excerpt: as §1, §2, §3, §4, §5, §6, §7, §8

Miscibility with hexane = format: physicochemical; details: this work
[1] = set-up: method as in PubChem; details: data obtained from PubChem; ref PubChem; cited from earlier work
[2] = set-up: key to C (carcinogenicity) / M (mutagenicity) / R (reproduction toxicity) / S (skin sensitization): −: absence of property; +: presence of property; ?: no prediction possible; details: cited from earlier work
[3] = exp: conclusion based on reliable experimental data

Compound	LEC PPARδ (PPARδ)	LEC AR‐anti (AR)	Hexane misc. (Miscibility with hexane)	Log P (o/w) [1]	C (carcinogenicity) [2, 3]	M (mutagenicity) [2, 3]	R (reproduction toxicity) [2, 3]	S (skin sensitization) [2, 3]	C (carcinogenicity), in words ([2]; experimental data)	M (mutagenicity), in words ([2]; experimental data)	R (reproduction toxicity), in words ([2]; experimental data)	S (skin sensitization), in words ([2]; experimental data)
CCCCN(CCCC)C(=O)CCC(=O)N(CCCC)CCCC [TBSA, N,N,N′,N′‐tetrabutylsuccindiamide]	–	–	yes^[a]									
CCCCN(CC)C(=O)CCC(=O)N(CC)CCCC [EBSA, N,N′‐diethyl‐N,N′‐dibutylsuccindiamide]	–	–	yes^[a]									
CN1CCCC1=O [NMP, N‐methyl‐2‐pyrrolidone, reference compound]			no^[a]	−0.38^[d]	− (exp)	− (exp)	+ (exp)	− (exp)	negative	negative	positive	negative
CCCCN(C)C(=O)CCC(=O)N(C)CCCC [MBSA, N,N′‐dimethyl‐N,N′‐dibutylsuccindiamide]	–	–	yes^[a]									
CCCCN1CCCC1=O [NBP, N‐Butylpyrrolidinone, reference compound]	−2.3 Log M	–	miscible; also recorded: yes^[a]			− (exp)	− (exp)	− (exp)		negative	negative	negative
